Data from PubChem BioAssay (NCI).
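In this assay, cells in 96-well plates receive the compound at five concentrations for 48 hours. Endpoints are linearly interpolated between the surrounding concentrations. TGI marks complete inhibition of growth.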

What was measured:
Assay in all cases: NCI anticancer screen, dose series, 48 h
HOP-62 NSCLC = system: HOP-62 NSCLC
NCI/ADR-RES ovarian = system: NCI/ADR-RES ovarian
HCT-116 colon = system: HCT-116 colon
SN12C renal = system: SN12C renal
T-47D breast = system: T-47D breast
SK-MEL-2 melanoma = system: SK-MEL-2 melanoma
IGROV1 ovarian = system: IGROV1 ovarian
K-562 leukemia = system: K-562 leukemia
MDA-N = system: MDA-N
NCI-H522 lung = system: NCI-H522 lung
MDA-MB-435 = system: MDA-MB-435
SF-268 CNS = system: SF-268 CNS
TK-10 renal = system: TK-10 renal
HCT-15 colon = system: HCT-15 colon
RXF 393 renal = system: RXF 393 renal
OVCAR-3 ovarian = system: OVCAR-3 ovarian
NCI-H460 lung = system: NCI-H460 lung
UACC-257 melanoma = system: UACC-257 melanoma
PC-3 prostate = system: PC-3 prostate
A498 renal = system: A498 renal
SNB-75 CNS = system: SNB-75 CNS
HL-60(TB) leukemia = system: HL-60(TB) leukemia
UACC-62 melanoma = system: UACC-62 melanoma
LOX IMVI melanoma = system: LOX IMVI melanoma
SK-MEL-5 melanoma = system: SK-MEL-5 melanoma
786-0 renal = system: 786-0 renal
HT29 colon = system: HT29 colon
NCI-H226 lung = system: NCI-H226 lung
A549 NSCLC = system: A549 NSCLC
OVCAR-8 ovarian = system: OVCAR-8 ovarian
MALME-3M melanoma = system: MALME-3M melanoma
MDA-MB-231 breast = system: MDA-MB-231 breast
MCF7 breast = system: MCF7 breast
OVCAR-5 ovarian = system: OVCAR-5 ovarian
ACHN renal = system: ACHN renal
HOP-92 NSCLC = system: HOP-92 NSCLC
NCI-H23 lung = system: NCI-H23 lung
CAKI-1 renal = system: CAKI-1 renal
U251 CNS = system: U251 CNS
OVCAR-4 ovarian = system: OVCAR-4 ovarian
SNB-19 CNS = system: SNB-19 CNS
EKVX NSCLC = system: EKVX NSCLC
SK-OV-3 ovarian = system: SK-OV-3 ovarian
HS 578T breast = system: HS 578T breast
SF-295 CNS = system: SF-295 CNS
SK-MEL-28 melanoma = system: SK-MEL-28 melanoma
BT-549 breast = system: BT-549 breast
CCRF-CEM leukemia = system: CCRF-CEM leukemia
UO-31 renal = system: UO-31 renal
M14 melanoma = system: M14 melanoma
KM12 colon = system: KM12 colon
DU-145 prostate = system: DU-145 prostate
MOLT-4 leukemia = system: MOLT-4 leukemia
HCC-2998 colon = system: HCC-2998 colon
RPMI-8226 leukemia = system: RPMI-8226 leukemia
COLO 205 colon = system: COLO 205 colon
SR leukemia = system: SR leukemia
SF-539 CNS = system: SF-539 CNS
SW-620 colon = system: SW-620 colon

SMILES: COC(=O)/C=C\C(C#N)(C#N)N=Cc1cccs1
- TGI (HOP-62 NSCLC): 32.6 µM
- TGI (NCI/ADR-RES ovarian): 45 µM
- TGI (HCT-116 colon): > 50.2 µM
- TGI (SN12C renal): 38.7 µM
- TGI (T-47D breast): 7.51 µM
- TGI (SK-MEL-2 melanoma): 34.3 µM
- TGI (IGROV1 ovarian): 32 µM
- TGI (K-562 leukemia): > 100 µM
- TGI (MDA-N): 49.3 µM
- TGI (NCI-H522 lung): 2.24 µM
- TGI (MDA-MB-435): 18 µM
- TGI (SF-268 CNS): 32.1 µM
- TGI (TK-10 renal): 3.43 µM
- TGI (HCT-15 colon): 5.69 µM
- TGI (RXF 393 renal): 5.51 µM
- TGI (OVCAR-3 ovarian): 25.1 µM
- TGI (NCI-H460 lung): 39.7 µM
- TGI (UACC-257 melanoma): 27.6 µM
- TGI (PC-3 prostate): 26 µM
- TGI (A498 renal): 34.3 µM
- TGI (SNB-75 CNS): 29.3 µM
- TGI (HL-60(TB) leukemia): 4.2 µM
- TGI (UACC-62 melanoma): 25.4 µM
- TGI (LOX IMVI melanoma): 6.68 µM
- TGI (SK-MEL-5 melanoma): 11.2 µM
- TGI (786-0 renal): > 46.3 µM
- TGI (HT29 colon): 4.24 µM
- TGI (NCI-H226 lung): 20.7 µM
- TGI (A549 NSCLC): > 56 µM
- TGI (OVCAR-8 ovarian): 14.4 µM
- TGI (MALME-3M melanoma): 6.61 µM
- TGI (MDA-MB-231 breast): 5.74 µM
- TGI (MCF7 breast): 4.06 µM
- TGI (OVCAR-5 ovarian): 22.1 µM
- TGI (ACHN renal): 4.12 µM
- TGI (HOP-92 NSCLC): 3.75 µM
- TGI (NCI-H23 lung): 27.3 µM
- TGI (CAKI-1 renal): 3.77 µM
- TGI (U251 CNS): > 53.3 µM
- TGI (OVCAR-4 ovarian): 17 µM
- TGI (SNB-19 CNS): > 56.5 µM
- TGI (EKVX NSCLC): 25.2 µM
- TGI (SK-OV-3 ovarian): 42.3 µM
- TGI (HS 578T breast): 78.3 µM
- TGI (SF-295 CNS): 42.3 µM
- TGI (SK-MEL-28 melanoma): 26 µM
- TGI (BT-549 breast): 19.9 µM
- TGI (CCRF-CEM leukemia): 3.58 µM
- TGI (UO-31 renal): 5.99 µM
- TGI (M14 melanoma): 15.4 µM
- TGI (KM12 colon): 37.8 µM
- TGI (DU-145 prostate): 24.3 µM
- TGI (MOLT-4 leukemia): > 24.5 µM
- TGI (HCC-2998 colon): 33.8 µM
- TGI (RPMI-8226 leukemia): 7.36 µM

SMILES: O=C1NC(=NCc2ccc(F)cc2)N/C1=C\c1ccccc1Cl
- TGI (HOP-62 NSCLC): 35.3 µM
- TGI (NCI/ADR-RES ovarian): 86.1 µM
- TGI (HCT-116 colon): 30.3 µM
- TGI (SN12C renal): 29.6 µM
- TGI (COLO 205 colon): 37.5 µM
- TGI (T-47D breast): 29.4 µM
- TGI (SK-MEL-2 melanoma): 33.3 µM
- TGI (IGROV1 ovarian): > 100 µM
- TGI (K-562 leukemia): > 100 µM
- TGI (MDA-N): 40.3 µM
- TGI (NCI-H522 lung): 30.4 µM
- TGI (MDA-MB-435): 43.9 µM
- TGI (SF-268 CNS): 59.9 µM
- TGI (TK-10 renal): 67.4 µM
- TGI (HCT-15 colon): 71.2 µM
- TGI (RXF 393 renal): 48.2 µM
- TGI (OVCAR-3 ovarian): 32.6 µM
- TGI (NCI-H460 lung): > 100 µM
- TGI (UACC-257 melanoma): > 100 µM
- TGI (PC-3 prostate): 38.8 µM
- TGI (SR leukemia): > 100 µM
- TGI (A498 renal): 34 µM
- TGI (SNB-75 CNS): 26.6 µM
- TGI (HL-60(TB) leukemia): 36.5 µM
- TGI (UACC-62 melanoma): 29.8 µM
- TGI (LOX IMVI melanoma): 28.6 µM
- TGI (SF-539 CNS): > 100 µM
- TGI (SK-MEL-5 melanoma): 33.6 µM
- TGI (786-0 renal): 24 µM
- TGI (HT29 colon): 29.5 µM
- TGI (SW-620 colon): 31.1 µM
- TGI (NCI-H226 lung): 69.3 µM
- TGI (A549 NSCLC): 41.8 µM
- TGI (OVCAR-8 ovarian): 29.3 µM
- TGI (MALME-3M melanoma): 41.8 µM
- TGI (MDA-MB-231 breast): 41.8 µM
- TGI (MCF7 breast): 54.8 µM
- TGI (OVCAR-5 ovarian): 41 µM
- TGI (ACHN renal): 49.1 µM
- TGI (HOP-92 NSCLC): 24.9 µM
- TGI (CAKI-1 renal): 70.8 µM
- TGI (U251 CNS): 30.4 µM
- TGI (OVCAR-4 ovarian): 74.3 µM
- TGI (SNB-19 CNS): 39.7 µM
- TGI (EKVX NSCLC): 58.2 µM
- TGI (SK-OV-3 ovarian): 63.2 µM
- TGI (HS 578T breast): > 100 µM
- TGI (SF-295 CNS): 35.8 µM
- TGI (SK-MEL-28 melanoma): 67.3 µM
- TGI (BT-549 breast): 56.8 µM
- TGI (M14 melanoma): 31.6 µM
- TGI (KM12 colon): 53.9 µM
- TGI (DU-145 prostate): 46.8 µM
- TGI (MOLT-4 leukemia): > 100 µM
- TGI (HCC-2998 colon): > 100 µM
